Measured values reported in US9523100B2, “Pesticidal compositions and related methods” (DOW AGROSCIENCES LLC, priority 2013, dated 2016).

Columns and labels:
[1] = system: Sweetpotato Whitefly-Crawler (WF) (Bemisia tabaci) (BEMITA); experiment: Insecticidal test for Sweetpotato Whitefly-Crawler (WF) in foliar spray assay on cotton plants; type: in vivo; conditions: 216 h, 200 ppm foliar spray on cotton plants, graded after 9 days, Abbott corrected % control, read-out: WF 200 ppm, % Control (or Mortality) rating
Outline: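 Whitefly nymph control on egg-infested cotton (eggs laid 4–5 days pre-treatment), foliar spray at 200 ppm test compound. Live late-stage nymphs counted microscopically 9 days later at ~25 °C; control calculated by Abbott's formula relative to acetone-diluent-sprayed plants.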

[2] = system: Green Peach Aphid (GPA) (Myzus persicae) (MYZUPE); experiment: Bioassay for Green Peach Aphid (GPA), foliar spray on cabbage seedlings; type: in vivo; conditions: 72 h, 200 ppm foliar spray on cabbage seedlings, graded after three days, Abbott corrected % control, read-out: GPA 200 ppm, % Control (or Mortality) rating
Outline: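 Foliar spray test: 200 ppm solutions (0.025% Tween 20 in water, 20% acetone/methanol) applied to both leaf sides of aphid-infested cabbage seedlings. After 3 days at about 25° C, live aphids per plant were counted; control corrected to solvent check via Abbott's formula.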

SMILES: CCN1CC(CCC(=O)N(CC)c2cn(-c3cccnc3)nc2Cl)C1=O (centres unmarked) [Compound F103, N-(3-Chloro-1-(pyridin-3-yl)-1H-pyrazol-4-yl)-N-ethyl-3-(1-ethyl-2-oxoazetidin-3-yl)propanamide]
- mortality at 200 ppm [1]: 80 to 100%
- mortality at 200 ppm [2]: 80 to 100%

SMILES: CCN(C(=O)CCCC1CN(CC2CC2(F)F)C1=O)c1cn(-c2cccnc2)nc1Cl (centres unmarked) [Compound F104, N-(3-Chloro-1-(pyridin-3-yl)-1H-pyrazol-4-yl)-4-(1-((2,2-difluorocyclopropyl)methyl)-2-oxoazetidin-3-yl)-N-ethylbutanamide]
- mortality at 200 ppm [1]: 80 to 100%
- mortality at 200 ppm [2]: 80 to 100%

SMILES: CCN(C(=O)CC/C(C)=N/O)c1cn(-c2cccnc2)nc1Cl [Compound F105, (E)-N-(3-chloro-1-(pyridin-3-yl)-1H-pyrazol-4-yl)-N-ethyl-4-(hydroxyimino) pentanamide]
- mortality at 200 ppm [1]: 80 to 100%
- mortality at 200 ppm [2]: 0 to 80%

SMILES: CCN(C(=O)CCC(=O)N1CCCC1)c1cn(-c2cccnc2)nc1Cl [Compound F106, N-(3-Chloro-1-(pyridin-3-yl)-1H-pyrazol-4-yl)-N-ethyl-4-oxo-4-(pyrrolidin-1-yl)butanamide]
- mortality at 200 ppm [1]: 0 to 80%
- mortality at 200 ppm [2]: 0 to 80%

SMILES: CN(C(=O)CCN1CCCC1=O)c1cn(-c2cccnc2)nc1Cl [Compound F107, N-(3-Chloro-1-(pyridin-3-yl)-1H-pyrazol-4-yl)-N-methyl-3-(2-oxopyrrolidin-1-yl)propanamide]
- mortality at 200 ppm [1]: 80 to 100%
- mortality at 200 ppm [2]: 80 to 100%

SMILES: CCN(C(=O)CCC(=O)N(C)CCC(F)(F)F)c1cn(-c2cccnc2)nc1Cl [Compound F108, N1-(3-chloro-1-(pyridin-3-yl)-1H-pyrazol-4-yl)-N1-ethyl-N4-methyl-N4-(3,3,3-trifluoropropyl)succinamide]
- mortality at 200 ppm [1]: 80 to 100%
- mortality at 200 ppm [2]: 80 to 100%

SMILES: CN(C(=O)[C@@H]1C=C[C@H](NC(=O)OC(C)(C)C)C1)c1cn(-c2cccnc2)nc1Cl [Compound F109, tert-butyl ((1R,4S)-4-((3-chloro-1-(pyridin-3-yl)-1H-pyrazol-4-yl)(methyl)carbamoyl)cyclopent-2-en-1-yl)carbamate]
- mortality at 200 ppm [1]: 80 to 100%
- mortality at 200 ppm [2]: 0 to 80%

SMILES: CCN(C(=O)C1CCN(C(=O)OC(C)(C)C)CC1)c1cn(-c2cccnc2)nc1Cl [Compound F110, tert-Butyl 44-(3-chloro-1-(pyridin-3-yl)-1H-pyrazol-4-yl)(ethylcarbamoyl) piperidine-1-carboxylate]
- mortality at 200 ppm [1]: 80 to 100%
- mortality at 200 ppm [2]: 80 to 100%

SMILES: CN(C(=O)CN1CCOC1=O)c1cn(-c2cccnc2)nc1Cl [Compound F111, N-(3-Chloro-1-(pyridin-3-yl)-1H-pyrazol-4-yl)-N-methyl-2-(2-oxooxazolidin-3-yl)acetamide]
- mortality at 200 ppm [1]: 80 to 100%
- mortality at 200 ppm [2]: 80 to 100%

SMILES: CCN(C(=O)CCNC(=O)C1CCN(C(C)=O)CC1)c1cn(-c2cccnc2)nc1Cl [Compound F112, 1-Acetyl-N-(3-((3-chloro-1-(pyridin-3-yl)-1H-pyrazol-4-yl)(ethyl)amino)-3-oxopropyl)piperidine-4-carboxamide]
- mortality at 200 ppm [1]: 80 to 100%
- mortality at 200 ppm [2]: 0 to 80%

SMILES: CCN(C(=O)CCNC(=O)C1(C)CC1(F)F)c1cn(-c2cccnc2)nc1Cl (centres unmarked) [Compound F113, N-(3-((3-chloro-1-(pyridin-3-yl)-1H-pyrazol-4-yl)(ethyl)amino)-3-oxopropyl)-2,2-difluoro-1-methylcyclopropanecarboxamide]
- mortality at 200 ppm [1]: 80 to 100%
- mortality at 200 ppm [2]: 80 to 100%

SMILES: CCN(C(=O)C(C)N(C)C(=O)N(C)C)c1cn(-c2cccnc2)nc1Cl (centres unmarked) [Compound F114, N-(3-Chloro-1-(pyridin-3-yl)-1H-pyrazol-4-yl)-N-ethyl-2-(1,3,3-trimethylureido)propanamide]
- mortality at 200 ppm [1]: 80 to 100%
- mortality at 200 ppm [2]: 80 to 100%

SMILES: CCN(C(=O)CCC(=O)NCc1ccncc1)c1cn(-c2cccnc2)nc1Cl [Compound F115, N1-(3-Chloro-1-(pyridin-3-yl)-1H-pyrazol-4-yl)-N1-ethyl-N4-(pyridin-4-ylmethyl)succinamide]
- mortality at 200 ppm [1]: 80 to 100%
- mortality at 200 ppm [2]: 0 to 80%
